Assay results taken from US8575376B2, “Steroide anionic compounds, method of their production, usage and pharmaceutical preparation involving them” (Ustav Organicke Chemie A Biochemie Akademie Ved Ceske …, priority 2009, dated 2013).

What was measured:
[1] = molecular target: T1, recombinant NR1/NR2B receptors (Rattus norvegicus, UniProt P35439+Q00960); test: Patch-clamp, inhibition of glutamate responses of recombinant NMDA receptors in transfected HEK293 cells; assay type: cell-based; settings: for IC50: calculated from relative inhibition with Hill's coefficient 1.2; for Relative inhibition effect (%): responses to 1 mM glutamate, -60 mV, HEK293 NR1-1a/NR2B, steroid 50, 100 or 200 μM
T1 construct: expressed in transfected cells; host or cells: HEK293 cells (ATCC CRL1573)

rats [2] = test: Active allothetic place avoidance (AAPA) task, compound applied alone; assay type: in vivo, rat
Method: The effect of compound from Example 9 on cognitive behaviors and locomotion was assessed using active allothetic place avoidance (AAPA) task, which requires intact hippocampi and ability of animals to navigate in space using distinct reference frames (spatial navigation and “cognitive coordination”) (Wesierska et al., 2005) and it also allows measuring changes in the accompanying locomotor activity. AAPA task training involves animals trained to move over a slowly rotating uniform circular arena, on which a prohibited sector is defined, entering which is punished by a mild footshock. A shock sector and its position can be determined solely by its relationship to distal orienting cues in the room (Stuchlik et al., 2008).
This task is highly dependent upon hippocampal formation, with unilateral reversible ablation of this structure with TTX leading to avoidance deficit (Cimadevilla et al., 2001). Animals solving this task should walk in a direction opposite to arena rotation; otherwise it would be repeatedly brought to a fixed sector by arena rotation. We conducted 4 acquisition session of AAPA task, during which the sector location was always reinforced and remained stable throughout the training. Each session lasted 20 min.
Control animals obtained saline intraperitoneally (i.p.) whilst experimental groups received subcutaneous (s.c.) injections of the compound from Example 9 at doses 1 mg/kg and 10 mg/kg (dissolved in cyclodextrin). Solution of compound from Example 9 (1 mg/2 ml or 10 mg/2 ml in cyclodextrin) was applied s.c. at a volume 2 ml/kg of body weight (b.w.). Intraperitonal application of dizocilpine (a non-competitive NMDA receptor antagonist; showing significant neuroprotective activity but exerting cognition-disturbing and psychotomimetic effects) was used as a positive control. Dizocilpine was applied at doses 0.1 mg/kg, 0.2 mg/kg and 0.3 mg/kg. It is worth noting that dizocilpine (albeit its experimental neuroprotective activity) is often used to model schizophrenia-like behaviors in […] and it has been repeatedly shown to exert a dose-dependent learning deficit and hyperlocomotion.

rats [3] = test: Open-field locomotion in MK-801 animal model of schizophrenia; assay type: in vivo, rat; settings: substance alone; Example 9 0.1 and 1 mg/kg, MK-801 0.1 mg/kg
Method: The effect of the compound from example 9 in doses of 0.1 mg/kg and 1 mg/kg on locomotor activity in open field test was evaluated. Locomotor activity expressed as a total distance travelled during 30 min exploration of a box (68×68×30 cm) located in a sound proof room was measured using a video tracking system for automation of the behavioural experiments (Noldus, EthoVision, Version 2.1.).

[4] = molecular target: T1, recombinant NR1/NR2B receptors; settings: 100 μM pregnanolone sulphate, recombinant NR1/NR2B receptors (Petrovic et al., 2005); listed as preganolone sulphate; cited from earlier work
[5] = system: NMDA receptor on hippocampal neurons; settings: 100 μM pregnanolone sulphate, responses to 100 μM NMDA, hippocampal neurons (Petrovic et al., 2005); cited from earlier work
C6 glioma cell line = test: Growth of glioma cells in culture; assay type: cell-based; settings: 0.1 and 1 μg in 50 ml β-cyclodextrine solution, 3 div + 6 days
Method: The effect of compound from the example 9 (the model molecule) on growth of glioma cells was studied on C6 glioma cell line (ATTC, Rockville). The model molecule was tested at doses of 0.1 and 1 μg dissolved in 50 ml of β-cyclodextrine solution. Parallel control groups were administered by cholesterol at doses of 0.1 and 1 μg dissolved in 50 ml of β-cyclodextrine solution. The last group included in the experiment was left intact without any application.
The cells were cultivated in vitro for 3 days (div). Afterwards tested molecule was applied and the cell culture was studied for additional 6 days. Olympus microscope with phase contrast and 200× magnification was used for the cell monitoring.

[6] = Example 9 1 and 10 mg/kg s.c., dizocilpine 0.1-0.3 mg/kg i.p.

T1 sequence (Q00960 27-1482, other chains not shown): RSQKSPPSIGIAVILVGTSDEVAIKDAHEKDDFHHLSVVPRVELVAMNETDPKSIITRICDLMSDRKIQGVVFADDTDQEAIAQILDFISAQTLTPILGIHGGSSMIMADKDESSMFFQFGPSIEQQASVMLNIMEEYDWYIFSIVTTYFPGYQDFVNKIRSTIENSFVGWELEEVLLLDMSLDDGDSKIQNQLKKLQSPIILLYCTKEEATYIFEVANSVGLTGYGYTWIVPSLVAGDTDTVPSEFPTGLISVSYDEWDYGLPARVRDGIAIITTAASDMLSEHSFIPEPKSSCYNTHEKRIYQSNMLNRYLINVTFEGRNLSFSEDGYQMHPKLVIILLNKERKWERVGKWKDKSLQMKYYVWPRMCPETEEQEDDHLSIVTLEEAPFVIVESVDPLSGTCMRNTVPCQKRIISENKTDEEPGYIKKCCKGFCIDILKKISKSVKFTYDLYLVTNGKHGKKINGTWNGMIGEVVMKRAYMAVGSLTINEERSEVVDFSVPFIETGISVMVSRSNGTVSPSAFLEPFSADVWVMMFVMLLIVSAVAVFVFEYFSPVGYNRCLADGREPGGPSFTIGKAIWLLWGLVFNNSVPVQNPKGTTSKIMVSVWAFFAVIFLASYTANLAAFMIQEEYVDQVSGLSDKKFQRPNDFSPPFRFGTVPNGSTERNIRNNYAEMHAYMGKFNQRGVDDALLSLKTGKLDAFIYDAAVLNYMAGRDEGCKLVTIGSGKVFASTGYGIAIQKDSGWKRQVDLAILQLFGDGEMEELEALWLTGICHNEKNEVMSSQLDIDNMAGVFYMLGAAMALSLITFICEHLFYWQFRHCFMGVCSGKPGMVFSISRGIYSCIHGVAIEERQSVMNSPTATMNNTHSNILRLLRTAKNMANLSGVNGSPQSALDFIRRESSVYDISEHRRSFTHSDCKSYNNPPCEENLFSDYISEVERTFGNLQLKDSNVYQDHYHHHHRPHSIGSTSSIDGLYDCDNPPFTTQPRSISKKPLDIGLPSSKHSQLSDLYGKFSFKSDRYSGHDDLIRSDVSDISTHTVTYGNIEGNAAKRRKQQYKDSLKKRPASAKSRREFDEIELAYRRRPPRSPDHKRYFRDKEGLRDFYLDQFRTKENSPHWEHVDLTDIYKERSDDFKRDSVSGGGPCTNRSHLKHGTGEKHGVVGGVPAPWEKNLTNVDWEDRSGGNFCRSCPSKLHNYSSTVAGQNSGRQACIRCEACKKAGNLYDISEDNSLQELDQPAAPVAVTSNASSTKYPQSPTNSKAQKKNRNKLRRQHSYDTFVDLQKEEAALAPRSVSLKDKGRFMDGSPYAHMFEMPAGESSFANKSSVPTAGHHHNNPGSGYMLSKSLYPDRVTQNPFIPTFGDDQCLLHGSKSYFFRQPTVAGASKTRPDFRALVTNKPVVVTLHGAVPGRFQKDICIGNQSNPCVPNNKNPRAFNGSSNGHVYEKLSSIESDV

| Compound | IC50 [1] [µM] | Relative inhibition effect (%) [1] [%] | also measured |
| --- | --- | --- | --- |
| CC(=O)[C@H]1CC[C@H]2[C@@H]3CC[C@@H]4C[C@H](OC(=O)CCCCCCC(=O)O)CC[C@]4(C)[C@H]3CC[C@]12C [Example 15, 20-Oxo-5β-pregnan-3α-yl 7-carboxyheptanoate] | 175 | 54.0 ± 10.8 | – |
| C[C@]12N[C@H](Cc3ccccc31)c1ccccc12 [dizocilpine] | – | – | maximum time avoided in AAPA (rats [2]; [6]): significantly decreased rats' performance; number of entrances into shock sector in AAPA (rats [2]; [6]): dose-dependently disrupted this parameter; total distance traveled in AAPA (locomotor activity) (rats [2]; Example 9 1 and 10 mg/kg s.c., dizocilpine 0.1-0.3 mg/kg i.p., 20-min sessions): dose-dependently and consistently stimulated the locomotor activity; locomotor activity in AAPA (rats [2]; dizocilpine 0.1 mg/kg i.p.): hyperlocomotion was not observed; locomotor activity in AAPA (rats [2]; dizocilpine 0.2 mg/kg i.p.): marked locomotor hyperactivity; locomotor activity in AAPA (rats [2]; dizocilpine 0.3 mg/kg i.p.): even more dramatic hyperlocomotion; locomotion in open field (total distance, 30 min) (rats [3]): hyperlocomotion state induced by MK-801 |
| COC(=O)CN[C@@H]1CC[C@@]2(C)[C@H](CC[C@@H]3[C@@H]2CC[C@]2(C)[C@@H](C(C)=O)CC[C@@H]32)C1.Cl [Example 26, N-(20-Oxo-5β-pregnan-3α-yl) glycine methylester hydrochloride] | 250 | 43.4 ± 3.4 | – |
| 20-oxo-5beta-pregnan-3alpha-yl sulfate [Pregnanolone sulphate] | 55 | – | mean inhibition effect [4]: 67.2±8.2%; mean inhibition effect [5]: 71.3±5.0% |
| CC(=O)[C@H]1CC[C@H]2[C@@H]3CC[C@@H]4C[C@H](OC(=O)[C@@H](N)CC(=O)O)CC[C@]4(C)[C@H]3CC[C@]12C [Example 3, 20-Oxo-5β-pregnan-3α-yl L-aspartyl 1-ester] | 51 | 83.6 ± 2.7 | – |
| CC(=O)[C@H]1CC[C@H]2[C@@H]3CC[C@@H]4C[C@H](OC(=O)C(C)CC(=O)O)CC[C@]4(C)[C@H]3CC[C@]12C (stereo partly drawn) [Example 19, 20-Oxo-5β-pregnan-3α-yl 3-carboxy-ξ-methyl-propanoate] | 30 | 80.9 ± 3.6 | – |
| CC(=O)[C@H]1CC[C@H]2[C@@H]3CC[C@@H]4C[C@H](OC(=O)CCCCCC(=O)O)CC[C@]4(C)[C@H]3CC[C@]12C [Example 14, 20-Oxo-5β-pregnan-3α-yl 6-carboxyhexanoate] | 135 | 61.5 ± 10.6 | – |
| CC(C)CCC[C@@H](C)[C@H]1CC[C@H]2[C@@H]3CC=C4C[C@@H](O)CC[C@]4(C)[C@H]3CC[C@]12C [cholesterol, reference compound] | – | – | effect on growth of glioma cells (C6 glioma cell line): slightly apparent |
| CC(=O)[C@H]1CC[C@H]2[C@@H]3CC[C@@H]4C[C@H](OC(=O)/C=C\C(=O)O)CC[C@]4(C)[C@H]3CC[C@]12C [Example 17, 20-Oxo-5β-pregnan-3α-yl (Z)-3-carboxyprop-2-enoate] | 14 | 81.6 ± 2.7 | – |
| CC(=O)[C@H]1CC[C@H]2[C@@H]3CC[C@@H]4C[C@H](OC(=O)CCCCC(=O)O)CC[C@]4(C)[C@H]3CC[C@]12C [Example 13, 20-Oxo-5β-pregnan-3α-yl-adipyl 1-ester] | 40 | 87.3 ± 8.9 | – |
